Experiment [1] concerns 4T1 cells. The experiment can be described thus: In vivo inhibition of breast tumor growth (4T1 breast cancer model). The following applies: BALB/c mice injected with 4T1 cells, treated every three days; compared with saline control; FIG. 8. As for the experimental part: To evaluate the efficacy of diMT-OXA(IV)-PEG 2000 nanoconjugate in inhibiting tumor growth in vivo, a model of animal with breast cancer was established. 4T1 cells were injected intravenously in BALB/c mice. 4T1 cells spontaneously generate tumors in BALB/c mice, and the characteristics of these tumors are very similar to breast cancer in humans. The BALB/c mice injected with 4T1 cells were treated every three days with free OXA, free 1-MT, free 1-MT plus OXA, and diMT-OXA(IV)-PEG 2000 nanoconjugate, and were treated with saline as control. After the course of treatment, tumor masses were collected from the experimental mice to measure tumor volume to assess general anti-tumor effects (see […]). It can be learned from FIG. 8 that the tumor volume is reduced in mice treated with free OXA, free 1-MT, and free 1-MT plus OXA, and the tumor volume is reduced in mice treated with diMT-OXA(IV)-PEG 2000 nanoconjugate to more than about 50% of that in mice treated with saline as control.

In experiment [2] the test system is 4T1 cells. The experiment can be described thus: In vitro anti-tumor viability test (CCK-8). The class given is cell-based. The following applies: different concentrations, 48 h, CCK-8, absorbance at 450 nm; FIG. 10. As for the experimental part: 4T1 cells were incubated in a 96-well plate (8000 cells/well) with a volume of 100 μL per well. After the incubation, the 96-well plate was placed in an incubator to culture at 37° C. under 5% CO2 overnight. 100 μL of free OXA and diMT-OXA(IV)-PEG 2000 nanoconjugate (in different concentrations) were added. After culture in the incubator at 37° C. under 5% CO2 for 48 h, 10 μL of CCK-8 solution was added into each well and then cultured in the incubator at 37° C. under 5% CO2 for 2 h. The absorbance was measured at 450 nm by an ELISA reader, and the cell viability was calculated.

As to `Cn1cc(C[C@@H](N)C(=O)O)c2ccccc21` [free 1-MT, 1-methyl-D-tryptophan], in experiment [1], the tumor volume result is on record as “reduced”.
Consider `O=C1[O][Pt]2([NH][C@@H]3CCCC[C@H]3[NH]2)[O]C1=O` [free OXA, oxaliplatin], for which the “inhibitory effect on the proliferation of 4T1 cells (cell viability)” value in experiment [2] is listed as “good inhibitory effect”. The tumor volume entry in experiment [1] was “reduced”.

Values taken from patent US12527872B2, “PEGylated ICD inducer-IDO inhibitor nanoconjugate, and preparation method and use thereof” (SHANDONG UNIVERSITY, priority 2019, dated 2026).
